This note sets out measurements from patent US8252832B2, “Kinesin inhibitors as cancer therapeutics” (Novartis AG, priority 2007, dated 2012).

Series [1] can be described thus: KMS-11-luc disseminated disease model, host response. It is filed as in vivo, mouse. The conditions noted are these: q4d × 3, i.v. As for the experimental part:
Experiments were performed using immunodeficient SCID-Beige female mice approximately 7-8 weeks old (Charles River Laboratories, Wilmington, Mass.). […] Routine animal care and assurance of welfare were as described above. […] Doses were adjusted to each animal's body weight. […] Approximately 10 minutes prior to imaging, mice were injected i.p. with 150 mg/kg luciferin (Xenogen Corporation, Alameda, Calif.), followed by anesthetization with isoflurane. Photon emission was measured using a charge coupled device camera in the IVIS imaging system (Xenogen Corporation). Briefly, a gray-scale image of the mice was captured, followed by an overlay of a bioluminescence map representing the spatial distribution of photons detected from cleaved luciferin in the cancer cells expressing luciferase. Signal intensity was quantified using a customized version of the IGOR Pro version 4.09A Software (WaveMetrics, Inc., Lake Oswego, Oreg.) called Living Image version 2.50.2 (Xenogen). The sum of all detected photon counts from the right+left legs were determined. Bioluminescence of cancer cells in the animals was measured by imaging on designated days until the first mice developed hind limb paralysis due to disease burden, the main end point for when to humanely euthanize mice. The day of euthanasia for each mouse was recorded, and the remaining percentage of mice surviving was plotted over time (Kaplan-Meier survival analysis). P values were calculated using the log-rank test (GraphPad Prism 4.0 software) to assess differences between treated and control groups (p<0.05 was considered significant). […] Data analysis was as described above.

Series [2] has as its system panel of cell lines derived from solid tumors. Nature of the series: Solid tumor cell line panel, fraction of surviving cells after 72 hours. It is filed as cell-based. As for the experimental part:
Compound IIa was tested against a panel of cell lines derived from solid tumors as described in See also McDermott, U., Sharma, S. V., Dowell, L., Greninger, P., Montagut, C., Lamb, J., Archibald, H., Raudales, R., Tam, A., Lee, D., Rothenberg, S. M., Supko, J. G., Sordella, R., Ulkus, L. E., Iafrate, A. J., Maheswaran, S., Njauw, C. N., Tsao, H., Drew, L., Hanke, J. H., Ma, X. J., Erlander, M. G., Gray, N. S., Haber, D. A., and Settleman, J. (2007), Identification of genotype-correlated sensitivity to selective kinase inhibitors by using high-throughput tumor cell line profiling. Proc. Natl. Acad. Sci. U.S. A 104, 19936-19941 (2007).) Cells were treated with the compound for 72 hours and the fraction of surviving cells, as compared to an untreated control, was reported. Table 17 lists the name of the cell line, the organ of origin, the fraction of surviving cells at the three concentrations tested (0.2 nM, 2.0 nM and 20 nM) and a sensitivity score. The sensitivity score was from 5 (most sensitive) to 1 (least sensitive) and the scoring was as follows: 5=surviving fraction≦0.2 at 0.2 nM; 4=0.2<surviving fraction≦0.5 at 0.2 nM; 3=surviving fraction>0.5 at 0.2 nM and ≦0.5 at 2.0 nM; 2=surviving fraction>0.5 at 2.0 nM and ≦0.5 at 20 nM; 1=surviving fraction>0.5 at 20 nM.

For the compound `CC(C)(C)[C@H](c1nc(-c2cc(F)ccc2F)cn1Cc1ccccc1)N(CC[C@H](N)CF)C(=O)CO` [Compound IIa], the “Max. Δ body weight (Day)” value in series [1] (0.25 mg/kg, D14) was 2.1 ± 1.23 g; in series [1] (0.5 mg/kg, D14) it was 2.5 ± 0.23 g; in series [1] (1 mg/kg, D13) it was -0.74 ± 0.75 g. Besides, the “Max. Δ body weight (Day) (%)” value in series [1] (0.25 mg/kg, D14) was 5.0 ± 2.0%; in series [1] (0.5 mg/kg, D14) it was 6.7 ± 1.1%; in series [1] (1 mg/kg, D13), −3.3 ± 4.0%. Also, the average sensitivity score in series [2] (brain) came out at 3.21; in series [2] (cervix) it was 3.00; in series [2] (ovary) it was 3.38; in series [2] (skin), 3.02; in series [2] (stomach) it was 3.32; in series [2] (thyroid), 3.00.
